Assay results reported in ChEMBL document CHEMBL6083271 (J Med Chem, 2024).
Calls of active or inactive are those of the source. The rule behind the calls is not given here.

Assays:
RS4-11 [1] = experiment: Antiproliferative activity against human RS4;11 cells harbouring p53 mutant assessed as inhibition of cell growth measured after 4 days by WST-8 assay; assay type: functional, cell-based; details: RS4-11, 96 h
RS4-11 [2] = experiment: Antiproliferative activity against human RS4;11 cells harbouring p53 wild type assessed as inhibition of cell growth measured after 4 days by WST-8 assay; assay type: functional, cell-based; details: RS4-11, 96 h
RS4-11 [3] = experiment: Antitumor activity against human RS4;11 cells xenografted in SCID mouse model assessed as tumor regression at 50 mg/kg, iv qd administered every other for 2 weeks by caliper method; assay type: functional, organism-based
RS4-11 [4] = experiment: Antiproliferative activity against human RS4;11 cells assessed as inhibition of cell growth measured after 4 days by WST-8 assay; assay type: functional, cell-based; details: for IC50: RS4-11, 96 h
[5] = target: Protein cereblon/Eukaryotic peptide chain release factor GTP-binding subunit ERF3A (Homo sapiens) (UniProt Q96SW2+P15170); experiment: PROTAC activity at CRBN/GSPT1 in human RS4;11 cells assessed as induction of GSPT1 degradation at 10 to 1000 nM measured after 4 hrs by Western blot analysis; assay type: cell-based; details: dose 10-1000 nM
RS4-11 [6] = experiment: Upregulation of p53 level in human RS4;11 cells harbouring wild type p53 at 10 to 300 nM measured after 2 hrs by Western blot analysis; assay type: functional, cell-based; details: dose 10-300 nM
RS4-11 [7] = experiment: Downregulation of MDM2 level in human RS4;11 cells harbouring wild type p53 at 10 to 300 nM measured after 2 hrs by Western blot analysis; assay type: functional, cell-based; details: dose 10-300 nM
[8] = Toxicity in SCID mouse at 50 mg/kg, iv; assay type: organism-based; details: in vivo
RS4-11 [9] = experiment: Upregulation of PUMA mRNA level in human RS4;11 cells at 300 nM measured after 3 hrs by qRT-PCR analysis; assay type: functional, cell-based
RS4-11 [10] = experiment: Antiproliferative activity against human RS4;11 cells assessed as inhibition of cell growth measured after 4 days in presence of lenalidomide by WST-8 assay; assay type: functional, cell-based; details: time 4.0 day
RS4-11 [11] = experiment: Upregulation of p21 mRNA level in human RS4;11 cells at 300 nM measured after 3 hrs by qRT-PCR analysis; assay type: functional, cell-based
MV4-11 [12] = experiment: Upregulation of MDM2 mRNA level in human MV4-11 cells at 300 nM by qRT-PCR analysis; assay type: functional, cell-based
MV4-11 [13] = experiment: Upregulation of PUMA mRNA level in human MV4-11 cells at 300 nM by qRT-PCR analysis; assay type: functional, cell-based
MV4-11 [14] = experiment: Antiproliferative activity against human MV4-11 cells assessed as inhibition of cell growth measured after 4 days in presence of lenalidomide by WST-8 assay; assay type: functional, cell-based; details: time 4.0 day
MV4-11 [15] = experiment: Upregulation of p21 mRNA level in human MV4-11 cells at 300 nM by qRT-PCR analysis; assay type: functional, cell-based
RS4-11 [16] = experiment: Upregulation of MDM2 mRNA level in human RS4;11 cells at 300 nM measured after 3 hrs by qRT-PCR analysis; assay type: functional, cell-based
RS4-11 [17] = experiment: Effect of p53 mRNA level in human RS4;11 cells at 300 nM by qRT-PCR analysis; assay type: functional, cell-based
MV4-11 [18] = experiment: Antiproliferative activity against human MV4-11 cells assessed as inhibition of cell growth measured after 4 days by WST-8 assay; assay type: functional, cell-based; details: MV4-11, 96 h

Protein cereblon/Eukaryotic peptide chain release factor GTP-binding subunit ERF3A (Homo sapiens), sequence (P15170 whole entry, looked up): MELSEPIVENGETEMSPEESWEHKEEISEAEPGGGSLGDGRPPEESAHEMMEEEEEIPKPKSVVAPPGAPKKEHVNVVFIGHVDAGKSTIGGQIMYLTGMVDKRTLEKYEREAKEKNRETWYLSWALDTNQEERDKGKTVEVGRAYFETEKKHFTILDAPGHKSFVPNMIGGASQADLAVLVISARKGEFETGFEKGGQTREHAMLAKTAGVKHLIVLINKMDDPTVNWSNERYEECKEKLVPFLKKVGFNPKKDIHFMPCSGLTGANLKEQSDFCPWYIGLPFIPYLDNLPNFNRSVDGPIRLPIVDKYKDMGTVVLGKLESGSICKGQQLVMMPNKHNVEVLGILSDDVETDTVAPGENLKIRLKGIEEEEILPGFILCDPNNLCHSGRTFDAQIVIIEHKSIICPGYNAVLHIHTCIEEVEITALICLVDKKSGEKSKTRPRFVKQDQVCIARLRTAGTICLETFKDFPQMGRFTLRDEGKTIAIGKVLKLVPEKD
Protein cereblon/Eukaryotic peptide chain release factor GTP-binding subunit ERF3A (Homo sapiens), sequence (Q96SW2 whole entry, looked up): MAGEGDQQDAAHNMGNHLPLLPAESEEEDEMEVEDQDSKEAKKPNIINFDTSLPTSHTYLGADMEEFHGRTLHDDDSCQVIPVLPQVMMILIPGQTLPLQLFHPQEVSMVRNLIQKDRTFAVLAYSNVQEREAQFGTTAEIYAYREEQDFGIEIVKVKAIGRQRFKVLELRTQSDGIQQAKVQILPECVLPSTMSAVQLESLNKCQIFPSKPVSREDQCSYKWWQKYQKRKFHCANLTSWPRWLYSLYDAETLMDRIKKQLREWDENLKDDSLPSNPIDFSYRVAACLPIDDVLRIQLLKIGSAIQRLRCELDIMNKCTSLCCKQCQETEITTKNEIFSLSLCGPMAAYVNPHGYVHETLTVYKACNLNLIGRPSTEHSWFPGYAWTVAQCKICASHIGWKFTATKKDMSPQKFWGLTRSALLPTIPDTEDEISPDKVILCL

| Compound | IC50 (RS4-11 [1]) | IC50 (RS4-11 [2]) | other results |
| --- | --- | --- | --- |
| O=C1CCC(N2Cc3c(C#C[C@H]4CC[C@H](NC(=O)c5ccc(NC(=O)[C@@H]6NC7(CCCCC7)[C@@]7(C(=O)Nc8cc(Cl)ccc87)[C@H]6c6cccc(Cl)c6F)cc5)CC4)cccc3C2=O)C(=O)N1 (stereo partly specified) | > 1 µM | 0.2 µM |  |
| O=C1CCC(N2Cc3c(C#CCCCNC(=O)C45CCC(NC(=O)[C@@H]6NC7(CCCCC7)[C@@]7(C(=O)Nc8cc(Cl)ccc87)[C@H]6c6cccc(Cl)c6F)(CC4)C5)cccc3C2=O)C(=O)N1 (stereo partly specified) | 0.003 µM | 0.002 µM |  |
| O=C1CCC(N2Cc3c(NC4CCN(C(=O)c5ccc(NC(=O)[C@@H]6NC7(CCCCC7)[C@@]7(C(=O)Nc8cc(Cl)ccc87)[C@H]6c6cccc(Cl)c6F)cc5)CC4)cccc3C2=O)C(=O)N1 (stereo partly specified) | 0.033 µM | 0.019 µM |  |
| O=C1CCC(N2Cc3c(C#CCCCCN4CCC(NC(=O)C5CCC(NC(=O)[C@@H]6NC7(CCCCC7)[C@@]7(C(=O)Nc8cc(Cl)ccc87)[C@H]6c6cccc(Cl)c6F)CC5)CC4)cccc3C2=O)C(=O)N1 (stereo partly specified) | > 1 µM | > 1 µM |  |
| O=C1CCC(N2Cc3c(C#CCCCNC(=O)[C@H]4CC[C@H](NC(=O)[C@@H]5NC6(CCCCC6)[C@@]6(C(=O)Nc7cc(Cl)ccc76)[C@H]5c5cccc(Cl)c5F)CC4)cccc3C2=O)C(=O)N1 (stereo partly specified) | > 1 µM | 0.0009 µM | Activity (RS4-11 [3]): Active; IC50 (RS4-11 [4]): 0.001 µM |
| O=C1CCC(N2Cc3c(NCC4CCN(CCNC(=O)c5ccc(NC(=O)[C@@H]6NC7(CCCCC7)[C@@]7(C(=O)Nc8cc(Cl)ccc87)[C@H]6c6cccc(Cl)c6F)cc5)CC4)cccc3C2=O)C(=O)N1 (stereo partly specified) | > 1 µM | 0.009 µM |  |
| COc1cc(C(=O)NCCCC#Cc2cccc3c2CN(C2CCC(=O)NC2=O)C3=O)ccc1NC(=O)[C@@H]1NC2(CCCCC2)[C@@]2(C(=O)Nc3cc(Cl)ccc32)[C@H]1c1cccc(Cl)c1F (stereo partly specified) | > 1 µM | 0.008 µM |  |
| O=C1CCC(N2Cc3c(C#CCCCNC(=O)c4cccc(NC(=O)[C@@H]5NC6(CCCCC6)[C@@]6(C(=O)Nc7cc(Cl)ccc76)[C@H]5c5cccc(Cl)c5F)c4)cccc3C2=O)C(=O)N1 (stereo partly specified) | 0.003 µM | 0.003 µM | Activity [5]: Active |
| O=C1CCC(N2Cc3c(NC4CN(C(=O)c5ccc(NC(=O)[C@@H]6NC7(CCCCC7)[C@@]7(C(=O)Nc8cc(Cl)ccc87)[C@H]6c6cccc(Cl)c6F)cc5)C4)cccc3C2=O)C(=O)N1 (stereo partly specified) | > 1 µM | 0.037 µM |  |
| O=C(O)c1ccc(NC(=O)[C@@H]2NC3(CCCCC3)[C@@]3(C(=O)Nc4cc(Cl)ccc43)[C@H]2c2cccc(Cl)c2F)cc1 |  |  | Activity (RS4-11 [6]): Active; Activity (RS4-11 [7]): inactive |
| O=C1CCC(N2Cc3c(NCC4CN(C(=O)c5ccc(NC(=O)[C@@H]6NC7(CCCCC7)[C@@]7(C(=O)Nc8cc(Cl)ccc87)[C@H]6c6cccc(Cl)c6F)cc5)C4)cccc3C2=O)C(=O)N1 (stereo partly specified) | > 1 µM | 0.019 µM |  |
| O=C(CN1CCC(NC(=O)[C@@H]2NC3(CCCCC3)[C@@]3(C(=O)Nc4cc(Cl)ccc43)[C@H]2c2cccc(Cl)c2F)CC1)NCCCC#Cc1cccc2c1CN(C1CCC(=O)NC1=O)C2=O (stereo partly specified) | > 1 µM | 0.005 µM | Activity (RS4-11 [3]): inactive |
| O=C1CCC(N2Cc3c(NCc4cn(CCCNC(=O)c5ccc(NC(=O)[C@@H]6NC7(CCCCC7)[C@@]7(C(=O)Nc8cc(Cl)ccc87)[C@H]6c6cccc(Cl)c6F)cc5)cn4)cccc3C2=O)C(=O)N1 (stereo partly specified) | 0.18 µM | 0.006 µM | Activity [8]: Toxic |
| O=C1CCC(N2Cc3c(NCC4CN(CCNC(=O)c5ccc(NC(=O)[C@@H]6NC7(CCCCC7)[C@@]7(C(=O)Nc8cc(Cl)ccc87)[C@H]6c6cccc(Cl)c6F)cc5)C4)cccc3C2=O)C(=O)N1 (stereo partly specified) | > 1 µM | 0.008 µM |  |
| CN1C(=O)CCC(N2Cc3c(C#CC4CCN(C(=O)[C@H]5CC[C@H](NC(=O)[C@@H]6NC7(CCCCC7)[C@@]7(C(=O)Nc8cc(Cl)ccc87)[C@H]6c6cccc(Cl)c6F)CC5)CC4)cccc3C2=O)C1=O (stereo partly specified) |  |  | Activity (RS4-11 [4]; time 4.0 day): Active; Compound Showed Weaker Cell Growth Inhibition |
| O=C1CCC(N2Cc3c(C#CCCCNC(=O)c4ccc(NC(=O)[C@@H]5NC6(CCCCC6)[C@@]6(C(=O)Nc7cc(Cl)ccc76)[C@H]5c5cccc(Cl)c5F)c(F)c4)cccc3C2=O)C(=O)N1 (stereo partly specified) | > 1 µM | 0.008 µM |  |

| Compound | IC50 (RS4-11 [1]) | IC50 (RS4-11 [2]) | other results |
| --- | --- | --- | --- |
| O=C1CCC(N2Cc3c(C#CCCCNC(=O)[C@H]4C[C@H](NC(=O)[C@@H]5NC6(CCCCC6)[C@@]6(C(=O)Nc7cc(Cl)ccc76)[C@H]5c5cccc(Cl)c5F)C4)cccc3C2=O)C(=O)N1 (stereo partly specified) | 0.007 µM | 0.003 µM |  |
| O=C(N[C@H]1CC[C@H](C(=O)O)CC1)[C@@H]1NC2(CCCCC2)[C@@]2(C(=O)Nc3cc(Cl)ccc32)[C@H]1c1cccc(Cl)c1F |  |  | Activity (RS4-11 [9]): Active; Least Effect; Activity (RS4-11 [10]): Active; Compound Showed Modest Inhibition Of Cell Growth; Activity (RS4-11 [11]): Active; Least Effect; Activity (MV4-11 [12]): Active; Less Effective Than Md-265; Activity (MV4-11 [13]): Active; Less Effective Than Md-265; Activity (MV4-11 [14]): Active; Compound Showed Minimal Effect; Activity (MV4-11 [15]): Active; Less Effective Than Md-265; IC50 (RS4-11 [4]): 0.179 µM; Activity (RS4-11 [16]): Active; Least Effect; Activity (RS4-11 [17]): inactive; IC50 (MV4-11 [18]): 0.093 µM |
| O=C1CCC(N2Cc3c(C#CCCCNC(=O)c4ccc(NC(=O)[C@@H]5NC6(CCCCC6)[C@@]6(C(=O)Nc7cc(Cl)ccc76)[C@H]5c5cccc(Cl)c5F)cn4)cccc3C2=O)C(=O)N1 (stereo partly specified) | > 1 µM | 0.007 µM |  |
| O=C1CCC(N2Cc3c(C#CCCCNC(=O)c4ccc(NC(=O)[C@@H]5NC6(CCCCC6)[C@@]6(C(=O)Nc7cc(Cl)ccc76)[C@H]5c5cccc(Cl)c5F)nc4)cccc3C2=O)C(=O)N1 (stereo partly specified) | > 1 µM | 0.002 µM |  |
| O=C1CCC(N2Cc3c(C#CCCCNC(=O)C4CCN(C(=O)[C@@H]5NC6(CCCCC6)[C@@]6(C(=O)Nc7cc(Cl)ccc76)C5c5cccc(Cl)c5F)CC4)cccc3C2=O)C(=O)N1 (single isomer, unassigned) | > 1 µM | > 1 µM |  |
| O=C1CCC(N2Cc3c(NC4CN(CCNC(=O)c5ccc(NC(=O)[C@@H]6NC7(CCCCC7)[C@@]7(C(=O)Nc8cc(Cl)ccc87)[C@H]6c6cccc(Cl)c6F)cc5)C4)cccc3C2=O)C(=O)N1 (stereo partly specified) | > 1 µM | 0.05 µM |  |
| O=C1CCC(N2Cc3c(CCC4CCN(C(=O)c5ccc(NC(=O)[C@@H]6NC7(CCCCC7)[C@@]7(C(=O)Nc8cc(Cl)ccc87)[C@H]6c6cccc(Cl)c6F)cc5)CC4)cccc3C2=O)C(=O)N1 (stereo partly specified) | > 1 µM | 0.019 µM |  |
| O=C1CCC(N2Cc3c(C#CCCCNC(=O)c4ccc(NC(=O)[C@@H]5NC6(CCCCC6)[C@@]6(C(=O)Nc7cc(Cl)ccc76)[C@H]5c5cccc(Cl)c5F)cc4F)cccc3C2=O)C(=O)N1 (stereo partly specified) | > 1 µM | 0.003 µM |  |
| O=C1CCC(N2Cc3c(CC[C@H]4CC[C@H](NC(=O)c5ccc(NC(=O)[C@@H]6NC7(CCCCC7)[C@@]7(C(=O)Nc8cc(Cl)ccc87)[C@H]6c6cccc(Cl)c6F)cc5)CC4)cccc3C2=O)C(=O)N1 (stereo partly specified) | > 1 µM | 0.034 µM |  |
| O=C1CCC(N2Cc3c(NCC4CCN(C(=O)c5ccc(NC(=O)[C@@H]6NC7(CCCCC7)[C@@]7(C(=O)Nc8cc(Cl)ccc87)[C@H]6c6cccc(Cl)c6F)cc5)CC4)cccc3C2=O)C(=O)N1 (stereo partly specified) | > 1 µM | 0.019 µM |  |
| O=C1CCC(N2Cc3c(NC4CCN(CCNC(=O)c5ccc(NC(=O)[C@@H]6NC7(CCCCC7)[C@@]7(C(=O)Nc8cc(Cl)ccc87)[C@H]6c6cccc(Cl)c6F)cc5)CC4)cccc3C2=O)C(=O)N1 (stereo partly specified) | > 1 µM | 0.008 µM |  |
| O=C1CCC(N2Cc3c(C#CCCCNC(=O)C45CC(NC(=O)[C@@H]6NC7(CCCCC7)[C@@]7(C(=O)Nc8cc(Cl)ccc87)[C@H]6c6cccc(Cl)c6F)(C4)C5)cccc3C2=O)C(=O)N1 (stereo partly specified) | 0.007 µM | 0.003 µM |  |
| O=C1CCC(N2Cc3c(C#CCCCNC(=O)C45CCC(NC(=O)[C@@H]6NC7(CCCCC7)[C@@]7(C(=O)Nc8cc(Cl)ccc87)[C@H]6c6cccc(Cl)c6F)(CC4)CC5)cccc3C2=O)C(=O)N1 (stereo partly specified) | > 1 µM | 0.003 µM |  |
| O=C1CCC(N2Cc3c(CCc4cn(CCCNC(=O)c5ccc(NC(=O)[C@@H]6NC7(CCCCC7)[C@@]7(C(=O)Nc8cc(Cl)ccc87)[C@H]6c6cccc(Cl)c6F)cc5)cn4)cccc3C2=O)C(=O)N1 (stereo partly specified) | > 1 µM | 0.007 µM | Activity (RS4-11 [3]): Active; Compound Showed Minimal Tumor Growth Inhibition |
| COc1cc(NC(=O)[C@@H]2NC3(CCCCC3)[C@@]3(C(=O)Nc4cc(Cl)ccc43)[C@H]2c2cccc(Cl)c2F)ccc1C(=O)NCCCC#Cc1cccc2c1CN(C1CCC(=O)NC1=O)C2=O (stereo partly specified) | > 1 µM | 0.004 µM |  |
